Reference: PubChem BioAssay (NCI)
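96-well plates; 48 h exposure; 5 concentrations. Endpoints by linear interpolation between flanking doses. Not reached: highest tested concentration assigned. At the TGI there is no net growth.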

What was measured:
Experiment in all cases: NCI-60 cell line screen, 48 h
CAKI-1 renal = tested on: CAKI-1 renal
NCI-H460 lung = tested on: NCI-H460 lung
786-0 renal = tested on: 786-0 renal
A549 NSCLC = tested on: A549 NSCLC
MDA-MB-435 = tested on: MDA-MB-435
SK-OV-3 ovarian = tested on: SK-OV-3 ovarian
TK-10 renal = tested on: TK-10 renal
HS 578T breast = tested on: HS 578T breast
SF-539 CNS = tested on: SF-539 CNS
RXF 393 renal = tested on: RXF 393 renal
SF-295 CNS = tested on: SF-295 CNS
A498 renal = tested on: A498 renal
UACC-62 melanoma = tested on: UACC-62 melanoma
CCRF-CEM leukemia = tested on: CCRF-CEM leukemia
ACHN renal = tested on: ACHN renal
HOP-62 NSCLC = tested on: HOP-62 NSCLC
K-562 leukemia = tested on: K-562 leukemia
LOX IMVI melanoma = tested on: LOX IMVI melanoma
COLO 205 colon = tested on: COLO 205 colon
BT-549 breast = tested on: BT-549 breast
M14 melanoma = tested on: M14 melanoma
MCF7 breast = tested on: MCF7 breast
HOP-92 NSCLC = tested on: HOP-92 NSCLC
DU-145 prostate = tested on: DU-145 prostate
HCT-116 colon = tested on: HCT-116 colon
HL-60(TB) leukemia = tested on: HL-60(TB) leukemia
NCI-H522 lung = tested on: NCI-H522 lung
HCT-15 colon = tested on: HCT-15 colon
U251 CNS = tested on: U251 CNS
SN12C renal = tested on: SN12C renal
KM12 colon = tested on: KM12 colon
HT29 colon = tested on: HT29 colon
HCC-2998 colon = tested on: HCC-2998 colon
PC-3 prostate = tested on: PC-3 prostate
SK-MEL-28 melanoma = tested on: SK-MEL-28 melanoma
OVCAR-4 ovarian = tested on: OVCAR-4 ovarian
RPMI-8226 leukemia = tested on: RPMI-8226 leukemia
MALME-3M melanoma = tested on: MALME-3M melanoma
SW-620 colon = tested on: SW-620 colon
SK-MEL-2 melanoma = tested on: SK-MEL-2 melanoma
MDA-N = tested on: MDA-N
OVCAR-5 ovarian = tested on: OVCAR-5 ovarian
NCI-H23 lung = tested on: NCI-H23 lung
UACC-257 melanoma = tested on: UACC-257 melanoma
IGROV1 ovarian = tested on: IGROV1 ovarian
OVCAR-3 ovarian = tested on: OVCAR-3 ovarian
SNB-19 CNS = tested on: SNB-19 CNS
T-47D breast = tested on: T-47D breast
NCI/ADR-RES ovarian = tested on: NCI/ADR-RES ovarian
SF-268 CNS = tested on: SF-268 CNS
SK-MEL-5 melanoma = tested on: SK-MEL-5 melanoma
EKVX NSCLC = tested on: EKVX NSCLC
OVCAR-8 ovarian = tested on: OVCAR-8 ovarian
MDA-MB-231 breast = tested on: MDA-MB-231 breast
MOLT-4 leukemia = tested on: MOLT-4 leukemia

CC[C@@H]1CN2CCC1C[C@@H]2C(O)c1ccnc2ccc(OCCN3CCN(CCOc4ccc5nccc(C(O)[C@@H]6C[C@@H]7CCN6C[C@@H]7CC)c5c4)CC3)cc12 (stereo not given in full)
TGI (CAKI-1 renal): 32.5 µM
TGI (NCI-H460 lung): 38.4 µM
TGI (786-0 renal): 30.2 µM
TGI (A549 NSCLC): 29.8 µM
TGI (MDA-MB-435): 28 µM
TGI (SK-OV-3 ovarian): 33.2 µM
TGI (TK-10 renal): 29.1 µM
TGI (HS 578T breast): 46.6 µM
TGI (SF-539 CNS): 36.7 µM
TGI (RXF 393 renal): 34.2 µM
TGI (SF-295 CNS): 30.5 µM
TGI (A498 renal): 37 µM
TGI (UACC-62 melanoma): 30.5 µM
TGI (CCRF-CEM leukemia): 15.7 µM
TGI (ACHN renal): 28.8 µM
TGI (HOP-62 NSCLC): 36.2 µM
TGI (K-562 leukemia): 6.2 µM
TGI (LOX IMVI melanoma): 38.5 µM
TGI (COLO 205 colon): 33.1 µM
TGI (BT-549 breast): 40.9 µM
TGI (M14 melanoma): 26.2 µM
TGI (MCF7 breast): 31.8 µM
TGI (HOP-92 NSCLC): 22.8 µM
TGI (DU-145 prostate): 31.8 µM
TGI (HCT-116 colon): 28.3 µM
TGI (HL-60(TB) leukemia): 47.6 µM
TGI (NCI-H522 lung): 61.8 µM
TGI (HCT-15 colon): 56.2 µM
TGI (U251 CNS): 33.1 µM
TGI (SN12C renal): 28.9 µM
TGI (KM12 colon): 34 µM
TGI (HT29 colon): 30.2 µM
TGI (HCC-2998 colon): 26.2 µM
TGI (PC-3 prostate): 30.3 µM
TGI (SK-MEL-28 melanoma): 35.5 µM
TGI (OVCAR-4 ovarian): 40.8 µM
TGI (RPMI-8226 leukemia): 8.45 µM
TGI (MALME-3M melanoma): 54.1 µM
TGI (SW-620 colon): 55.6 µM
TGI (SK-MEL-2 melanoma): 37.2 µM
TGI (MDA-N): 27.1 µM
TGI (OVCAR-5 ovarian): 32.9 µM
TGI (NCI-H23 lung): 43.7 µM
TGI (UACC-257 melanoma): 32.1 µM
TGI (IGROV1 ovarian): 36.7 µM
TGI (OVCAR-3 ovarian): 36 µM
TGI (SNB-19 CNS): 27.9 µM
TGI (T-47D breast): 42.1 µM
TGI (NCI/ADR-RES ovarian): > 100 µM
TGI (SF-268 CNS): 41.2 µM
TGI (SK-MEL-5 melanoma): 32 µM
TGI (EKVX NSCLC): 31.2 µM
TGI (OVCAR-8 ovarian): 42.6 µM
TGI (MDA-MB-231 breast): 31.3 µM
TGI (MOLT-4 leukemia): 21.7 µM
